Assay results published in patent US8148391B2 (Cephalon, Inc., priority 2006, dated 2012).
Read-outs that look alike come from different tables or passages of the source.

Assays:
[1] = molecular target: T1, baculovirus-expressed ALK (Homo sapiens, UniProt Q9UM73); assay: ALK Kinase Assay (ELISA-type, time-resolved fluorescence); assay type: biochemical
T1 construct: host or cells: baculovirus expression system
Outline: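 Wells were coated with phospholipase C-γ at 10 μg/mL in Tris-buffered saline. Adding 30 ng/ml enzyme started the reaction, which ran at 37° C for 15 minutes before Eu-N1 PT66 antibody detection. Percent inhibition versus log10 concentration gave IC50 by variable-slope fit.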

[2] = molecular target: T2, c-Met (cytoplasmic domain) (Homo sapiens, UniProt P08581); assay: c-Met Kinase Assay (same methods as for ALK, with modifications); assay type: biochemical
T2 construct: 10 ng/mL c-Met (cytoplasmic domain, Invitrogen Corporation #PV3143); purchased Invitrogen Corporation PV3143
Outline: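 IC50 values were fitted by variable-slope sigmoidal regression of percent inhibition against log compound concentration. Phosphorylation was read with Eu-N1 PT66 antibody after a 15 min, 37 °C reaction. The reaction was initiated with 10 ng/mL c-Met cytoplasmic domain on wells coated with 10 μg/mL PLC-γ in TBS.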

[3] = ALK kinase inhibition, 1 μM ATP, read-out: ALK Activity
[4] = c-Met kinase inhibition, 1 μM ATP, read-out: cMet Activity
[5] = 1 μM ATP (Km level), read-out: ALK Activity (ALK Kinase Inhibition, IC50)
[6] = 1 μM ATP (Km level), read-out: cMet Activity (c-Met Kinase Inhibition, IC50)
[7] = 1 μM ATP (Km level), 30 ng/ml ALK, 37° C., 15 minutes, read-out: ALK Activity (ALK kinase inhibition, IC50 class)
[8] = 1 μM ATP (Km level), 10 ng/mL c-Met, read-out: cMet Activity (c-Met kinase inhibition, IC50 class)
[9] = ALK kinase inhibition, 1 μM ATP (Km level), read-out: ALK Activity
[10] = c-Met kinase inhibition, 1 μM ATP (Km level), read-out: cMet Activity

T1 sequence (Q9UM73 19-1620): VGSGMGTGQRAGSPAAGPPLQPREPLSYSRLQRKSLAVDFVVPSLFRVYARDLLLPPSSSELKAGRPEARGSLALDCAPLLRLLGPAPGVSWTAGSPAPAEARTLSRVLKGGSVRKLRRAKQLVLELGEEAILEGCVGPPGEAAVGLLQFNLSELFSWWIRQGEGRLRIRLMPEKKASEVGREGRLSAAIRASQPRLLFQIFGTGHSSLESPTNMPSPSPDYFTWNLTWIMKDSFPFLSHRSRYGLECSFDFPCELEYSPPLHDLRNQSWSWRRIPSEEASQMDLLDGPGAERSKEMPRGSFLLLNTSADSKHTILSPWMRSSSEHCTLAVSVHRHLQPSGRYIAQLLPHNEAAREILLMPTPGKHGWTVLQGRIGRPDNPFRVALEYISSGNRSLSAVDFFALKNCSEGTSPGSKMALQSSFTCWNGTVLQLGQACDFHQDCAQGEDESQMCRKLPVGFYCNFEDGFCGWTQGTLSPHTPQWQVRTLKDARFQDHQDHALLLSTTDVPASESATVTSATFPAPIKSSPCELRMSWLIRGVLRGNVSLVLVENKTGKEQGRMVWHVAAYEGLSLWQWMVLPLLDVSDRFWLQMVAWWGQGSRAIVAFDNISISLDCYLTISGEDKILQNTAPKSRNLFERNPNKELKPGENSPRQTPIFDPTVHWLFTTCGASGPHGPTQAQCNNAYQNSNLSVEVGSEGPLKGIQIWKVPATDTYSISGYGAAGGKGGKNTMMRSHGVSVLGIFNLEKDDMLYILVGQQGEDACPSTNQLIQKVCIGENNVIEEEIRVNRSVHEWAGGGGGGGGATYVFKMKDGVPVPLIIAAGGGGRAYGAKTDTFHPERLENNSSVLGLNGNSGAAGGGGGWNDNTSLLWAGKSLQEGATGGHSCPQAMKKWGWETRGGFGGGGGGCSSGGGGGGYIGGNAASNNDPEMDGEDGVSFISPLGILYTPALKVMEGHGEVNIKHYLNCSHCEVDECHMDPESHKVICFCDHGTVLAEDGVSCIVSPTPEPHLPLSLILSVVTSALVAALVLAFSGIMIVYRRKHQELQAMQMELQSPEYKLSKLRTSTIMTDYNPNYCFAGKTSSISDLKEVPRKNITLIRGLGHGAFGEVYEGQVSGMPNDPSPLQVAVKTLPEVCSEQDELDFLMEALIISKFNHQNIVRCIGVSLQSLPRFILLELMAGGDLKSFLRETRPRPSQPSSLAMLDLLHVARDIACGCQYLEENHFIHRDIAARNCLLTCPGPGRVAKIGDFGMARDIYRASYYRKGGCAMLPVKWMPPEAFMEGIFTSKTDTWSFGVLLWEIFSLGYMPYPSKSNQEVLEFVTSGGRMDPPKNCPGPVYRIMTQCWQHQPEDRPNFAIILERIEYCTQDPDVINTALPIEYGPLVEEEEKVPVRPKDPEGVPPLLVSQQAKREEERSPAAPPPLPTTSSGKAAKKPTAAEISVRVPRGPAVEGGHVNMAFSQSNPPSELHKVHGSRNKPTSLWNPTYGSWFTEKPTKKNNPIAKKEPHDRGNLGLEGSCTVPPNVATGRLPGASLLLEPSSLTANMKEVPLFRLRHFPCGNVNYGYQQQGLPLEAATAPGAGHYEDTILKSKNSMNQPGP
T2 sequence (P08581 956-1390 limits assumed): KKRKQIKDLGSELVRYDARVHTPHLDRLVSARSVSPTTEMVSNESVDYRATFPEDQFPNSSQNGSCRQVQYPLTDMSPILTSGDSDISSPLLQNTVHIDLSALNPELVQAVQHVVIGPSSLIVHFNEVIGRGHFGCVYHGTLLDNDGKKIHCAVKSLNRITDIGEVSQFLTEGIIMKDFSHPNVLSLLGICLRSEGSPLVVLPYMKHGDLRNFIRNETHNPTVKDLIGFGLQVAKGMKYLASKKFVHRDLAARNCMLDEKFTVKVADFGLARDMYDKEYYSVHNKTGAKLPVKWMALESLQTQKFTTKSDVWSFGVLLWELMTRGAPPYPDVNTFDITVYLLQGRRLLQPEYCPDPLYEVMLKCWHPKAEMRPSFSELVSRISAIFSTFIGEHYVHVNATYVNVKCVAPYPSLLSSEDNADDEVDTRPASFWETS

| IC50 [1, 3] [µM] | IC50 [2, 4] [µM] | IC50 [1, 5] [µM] | IC50 [2, 6] [µM] | Compound | other results |
| --- | --- | --- | --- | --- | --- |
| < 0.1 | 0.1 to 1 |  |  | C=CCOc1cc(N(C)C)cc(F)c1Nc1nc(Nc2ccc3c(c2)CCN(CCOC)CC3)ncc1Cl [Example 1710, N*4*-(2-Allyloxy-4-dimethylamino-6-fluoro-phenyl)-5-chloro-N*2*-[3-(2-methoxy-ethyl)-2,3,4,5-tetrahydro-1H-benzo[d]azepin-7-yl]-pyrimidine-2,4-diamine] |  |
| < 0.1 | 1 to 10 |  |  | COc1cc2c(cc1Nc1ncc(Cl)c(Nc3ccccc3S(=O)(=O)N(C)C)n1)CCN(CCOC(=O)[C@@H](N)C(C)C)CC2 [Example 1544, (S)-2-Amino-3-methyl-butyric acid 2-{7-[5-chloro-4-(2-dimethylsulfamoyl-phenylamino)-pyrimidin-2-ylamino]-8-methoxy-1,2,4,5-tetrahydro-3-benzazepin-3-yl}-ethyl ester] |  |
|  |  | < 0.1 | 1 to 10 | CCNC(=O)c1cccc(F)c1Nc1nc(Nc2cc3c(cc2OC)CCN(CC(C)(F)F)CC3)ncc1Cl [Example 789, 2-{5-Chloro-2-[3-(2,2-difluoro-propyl)-8-methoxy-2,3,4,5-tetrahydro-1H-benzo[d]azepin-7-ylamino]-pyrimidin-4-ylamino}-N-ethyl-3-fluoro-benzamide] |  |
|  |  |  |  | COCCN1CCc2ccc(Nc3ncc(Cl)c(N[C@H]4CC[C@H](NS(C)(=O)=O)CC4)n3)cc2CC1 [Example 1378, trans-N-(4-{5-Chloro-2-[3-(2-methoxy-ethyl)-2,3,4,5-tetrahydro-1H-benzo[d]azepin-7-ylamino]-pyrimidin-4-ylamino}-cyclohexyl)-methanesulfonamide] | IC50 [1, 7]: 0.1 to 1 µM; IC50 [2, 8]: > 10 µM |
|  |  | < 0.1 | > 10 | CCCN1CCc2cc(Nc3ncc(Cl)c(N[C@H]4[C@@H](C(N)=O)[C@@H]5C=C[C@H]4C5)n3)c(OC)cc2CC1 [Example 774, (1S,2S,3R,4R)-3-[5-Chloro-2-(8-methoxy-3-propyl-2,3,4,5-tetrahydro-1H-benzo[d]azepin-7-ylamino)-pyrimidin-4-ylamino]-bicyclo[2.2.1]hept-5-ene-2-carboxylic acid amide] |  |
|  |  | < 0.1 | 1 to 10 | CNC(=O)c1cccc(Nc2nc(Nc3ccc4c(c3)C(C)(C)CCC(=O)N4C)ncc2Cl)c1 [Example 670, 3-[5-Chloro-2-(1,5,5-trimethyl-2-oxo-2,3,4,5-tetrahydro-1H-benzo[b]azepin-7-ylamino)-pyrimidin-4-ylamino]-N-methyl-benzamide] |  |
|  |  | < 0.1 | 1 to 10 | COc1c(Nc2ncc(Cl)c(Nc3ccccc3S(=O)(=O)N3CCCC3)n2)ccc2c1CCC(N1CCCC(O)C1)CC2 (mixture of isomers) [Example 908, 1-(2-{5-Chloro-4-[2-(pyrrolidine-1-sulfonyl)-phenylamino]-pyrimidin-2-ylamino}-1-methoxy-6,7,8,9-tetrahydro-5H-benzocyclohepten-7-yl)-piperidin-3-ol] |  |
|  |  |  |  | CCN1CCc2c(Nc3ncc(Cl)c(Nc4ccccc4C(=O)NC)n3)ccc(OC)c2CC1 [Example 154, 2-[5-Chloro-2-(3-ethyl-9-methoxy-2,3,4,5-tetrahydro-1H-benzo[d]azepin-6-ylamino)-pyrimidin-4-ylamino]-N-methyl-benzamide] | IC50 [1, 9]: 0.1 to 1 µM; IC50 [2, 10]: > 10 µM |
| < 0.1 | > 10 |  |  | CCN1CCN(CC)c2cc(Nc3ncc(Cl)c(N[C@@H]4CCCC[C@H]4NS(C)(=O)=O)n3)c(OC)cc2C1 [Example 1456, N-{(1R,2R)-2-[5-Chloro-2-(1,4-diethyl-7-methoxy-2,3,4,5-tetrahydro-1H-benzo[e][1,4]diazepin-8-ylamino)-pyrimidin-4-ylamino]-cyclohexyl}-methanesulfonamide] |  |
| 1 to 10 | < 0.1 |  |  | CNC(=O)c1cccc(C)c1Nc1nc(Nc2ccc3c(c2)CCOC(=O)N3C)ncc1Cl [Example 1744, 2-[5-Chloro-2-(5-methyl-6-oxo-5,6,8,9-tetrahydro-7-oxa-5-aza-benzocyclohepten-2-ylamino)-pyrimidin-4-ylamino]-3,N-dimethyl-benzamide] |  |
|  |  | < 0.1 | > 10 | COc1cc2c(cc1Nc1ncc(Cl)c(N[C@H]3[C@@H](C(N)=O)[C@@H]4C=C[C@H]3C4)n1)CCN(CC1CC1)CC2 [Example 775, (1S,2S,3R,4R)-3-[5-Chloro-2-(3-cyclopropylmethyl-8-methoxy-2,3,4,5-tetrahydro-1H-benzo[d]azepin-7-ylamino)-pyrimidin-4-ylamino]-bicyclo[2.2.1]hept-5-ene-2-carboxylic acid amide] |  |
| 1 to 10 | 1 to 10 |  |  | CCN1C(=O)CCC(C)(C)c2ccc(Nc3ncc(Cl)c(Nc4ccsc4C(=O)NC)n3)cc21 [Example 1597, 3-[5-Chloro-2-(1-ethyl-5,5-dimethyl-2-oxo-2,3,4,5-tetrahydro-1H-benzo[b]azepin-8-ylamino)-pyrimidin-4-ylamino]-thiophene-2-carboxylic acid methylamide] |  |
|  |  |  |  | CC(C)S(=O)(=O)c1ccccc1Nc1nc(Nc2ccc3c(c2)CCC(N2CCOCC2)CC3)ncc1Cl (stereo not shown) [Example 1036, 5-Chloro-N*2*-(7-morpholin-4-yl-6,7,8,9-tetrahydro-5H-benzocyclohepten-2-yl)-N*4*-[2-(propane-2-sulfonyl)-phenyl]-pyrimidine-2,4-diamine] | IC50 [1, 7]: < 0.1 µM; IC50 [2, 8]: 0.1 to 1 µM |
|  |  |  |  | CCN1C(=O)[C@H](N2CCOCC2)CCc2c1ccc(Nc1ncc(Cl)c(N[C@H]3[C@@H](C(N)=O)[C@@H]4C=C[C@H]3C4)n1)c2OC (single isomer, unassigned) [Example 1344] | IC50 [1, 7]: < 0.1 µM; IC50 [2, 8]: > 10 µM |
|  |  |  |  | CCN1C(=O)[C@H](NC(=O)COC)CCc2c1ccc(Nc1ncc(Cl)c(N[C@H]3[C@@H](C(N)=O)[C@@H]4C=C[C@H]3C4)n1)c2OC (single isomer, unassigned) [Example 1350] | IC50 [1, 7]: < 0.1 µM; IC50 [2, 8]: > 10 µM |
|  |  | < 0.1 | > 10 | COc1cc2c(cc1Nc1ncc(Cl)c(Nc3ccc(N4CCN(C5CCN(C)CC5)CC4)cc3OC)n1)CCN(CC(=O)N(C)C)CC2 [Example 835, 2-[7-(5-Chloro-4-{2-methoxy-4-[4-(1-methyl-piperidin-4-yl)-piperazin-1-yl]-phenylamino}-pyrimidin-2-ylamino)-8-methoxy-1,2,4,5-tetrahydro-benzo[d]azepin-3-yl]-N,N-dimethyl-acetamide] |  |
| 0.1 to 1 | < 0.1 |  |  | C#CCNC(=O)c1cccc(F)c1Nc1nc(Nc2ccc3c(c2)N(C(C)=O)CCCO3)ncc1Cl [Example 1713, 2-[2-(9-Acetyl-6,7,8,9-tetrahydro-5-oxa-9-aza-benzocyclohepten-2-ylamino)-5-chloro-pyrimidin-4-ylamino]-3-fluoro-N-prop-2-ynyl-benzamide] |  |
|  |  |  |  | N-((1R,2R)-2-{5-Chloro-2-[(1R,8S)-10-(2,2,2-trifluoro-acetyl)-10-aza-tricyclo[6.3.2.0*2,7*]trideca-2,4,6-trien-4-ylamino]-pyrimidin-4-ylamino}-cyclohexyl)-methanesulfonamide and N-((1R,2R)-2-{5-Chloro-2-[(1S,8R)-10-(2,2,2-trifluoro-acetyl)-10-aza-tricyclo[6.3.2.0*2,7*]trideca-2,4,6-trien-4-ylamino]-pyrimidin-4-ylamino}-cyclohexyl)-methanesulfonamide [Example 345] | IC50 [1, 9]: < 0.1 µM; IC50 [2, 10]: < 0.1 µM |
|  |  | 0.1 to 1 | 0.1 to 1 | O=C1CCCc2cc(Nc3ncc(Cl)c(Nc4ccccc4-c4cnco4)n3)ccc2N1 [Example 997, 7-[5-Chloro-4-(2-oxazol-5-ylphenylamino)-pyrimidin-2-ylamino]-1,3,4,5-tetrahydro-benzo[b]azepin-2-one] |  |
|  |  |  |  | CCN1C2CCC1c1c(ccc(Nc3ncc(Cl)c(N[C@@H]4CCCC[C@H]4NS(C)(=O)=O)n3)c1OC)C2 (stereo partly drawn) [Example 93, N-{(1R,2R)-2-[5-Chloro-2-(12-ethyl-3-methoxy-12-aza-tricyclo[7.2.1.0*2,7*]dodeca-2(7),3,5-trien-4-ylamino)-pyrimidin-4-ylamino]-cyclohexyl}-methanesulfonamide] | IC50 [1, 9]: > 10 µM; IC50 [2, 10]: > 10 µM |
|  |  | < 0.1 | > 10 | COc1cc2c(cc1Nc1ncc(Cl)c(Nc3ccc(N4CCN(C)CC4)c(C)c3)n1)CCN(CC(F)F)CC2 [Example 765, 5-Chloro-N*2*-[3-(2,2-difluoro-ethyl)-8-methoxy-2,3,4,5-tetrahydro-1H-benzo[d]azepin-7-yl]-N*4*-[3-methyl-4-(4-methyl-piperazin-1-yl)-phenyl]-pyrimidine-2,4-diamine] |  |
| < 0.1 | 1 to 10 |  |  | CN(C)[C@@H]1CCN(S(=O)(=O)c2ccccc2Nc2nc(Nc3ccc4c(c3)NC(=O)CCC4(C)C)ncc2Cl)C1 [Example 1625, 8-{5-Chloro-4-[2-((R)-3-dimethylamino-pyrrolidine-1-sulfonyl)-phenylamino]-pyrimidin-2-ylamino}-5,5-dimethyl-1,3,4,5-tetrahydro-benzo[b]azepin-2-one] |  |
|  |  |  |  | CCN1CCN(CC)c2cc(Nc3ncc(Cl)c(Nc4ccccc4NS(C)(=O)=O)n3)ccc2C1 [Example 425, N-{2-[5-Chloro-2-(1,4-diethyl-2,3,4,5-tetrahydro-1H-benzo[e][1,4]diazepin-8-ylamino)-pyrimidin-4-ylamino]-phenyl}-methanesulfonamide] | IC50 [1, 9]: < 0.1 µM; IC50 [2, 10]: 0.1 to 1 µM |
